In patent publication US7897602B2, “Indolinone compounds as kinase inhibitors” (Development Center for Biotechnology, priority 2009, dated 2011):
Structures can show the parent of a compound that is named as a salt.

Assays:
VEGFR2 kinase = target: T1, VEGFR2 kinase (Homo sapiens, UniProt P35968); assay: VEGFR2 kinase assay (33P incorporation into Poly(Glu-Tyr)); format: biochemical; settings: 500 nM test compound; read-out: Inhibition at 500 nM (%) VEGFr-2
T1 construct: recombinant N-terminal 6×His-tagged VEGFR2 kinase domain construct expressed by baculovirus; 6xHis (N); made in house
T1 sequence (P35968 834-1162 limits assumed): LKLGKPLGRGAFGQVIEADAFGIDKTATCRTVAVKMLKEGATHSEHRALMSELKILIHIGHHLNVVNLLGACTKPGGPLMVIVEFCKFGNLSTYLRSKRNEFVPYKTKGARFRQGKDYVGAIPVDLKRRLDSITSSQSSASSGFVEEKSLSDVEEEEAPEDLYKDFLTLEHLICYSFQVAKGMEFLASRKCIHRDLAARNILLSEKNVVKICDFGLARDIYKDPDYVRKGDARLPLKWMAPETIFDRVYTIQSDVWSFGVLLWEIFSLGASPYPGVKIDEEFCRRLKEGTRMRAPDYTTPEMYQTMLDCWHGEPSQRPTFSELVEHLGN
Outline: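 Recombinant baculovirus-expressed N-terminal His6-tagged VEGFR2 kinase domain (6.25 ng) phosphorylated poly(Glu-Tyr) 4:1 with 100 μM ATP plus [33P]-γ-ATP in MOPS pH 7.0, 30 °C, 30 min. Test compound was at 500 nM (4% DMSO). Filter-retained radioactivity relative to DMSO control gave % inhibition.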

Flt3 kinase = target: T2, Flt3 kinase (Homo sapiens, UniProt P36888); assay: Flt3 kinase assay (33P incorporation into Poly(Glu-Tyr)); format: biochemical; settings: 100 nM test compound; read-out: Inhibition at 100 nM (%) Flt-3
T2 construct: recombinant N-terminal 6×His-tagged Flt3 kinase domain construct expressed from baculovirus; 6xHis (N); made in house
T2 sequence (P36888 610-943 limits assumed): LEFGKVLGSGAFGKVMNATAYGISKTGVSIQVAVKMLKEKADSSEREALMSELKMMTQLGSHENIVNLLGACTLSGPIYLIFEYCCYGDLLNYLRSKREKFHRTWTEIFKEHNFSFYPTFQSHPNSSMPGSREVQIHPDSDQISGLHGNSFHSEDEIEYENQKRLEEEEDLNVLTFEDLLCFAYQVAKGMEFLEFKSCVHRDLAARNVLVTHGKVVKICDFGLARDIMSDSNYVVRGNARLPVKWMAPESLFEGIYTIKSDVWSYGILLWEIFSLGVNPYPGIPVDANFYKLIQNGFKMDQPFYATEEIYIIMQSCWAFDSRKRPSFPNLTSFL
Outline: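 Baculovirus-expressed His-tagged Flt3 kinase domain (5 ng) with Poly(Glu-Tyr) 4:1 substrate, 100 μM ATP plus [33P]-γ-ATP, in MOPS pH 7.0 buffer, 30 min at 30 °C. Compound tested at a single 100 nM concentration; filter-bound radioactivity counted and percent inhibition calculated relative to DMSO control.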

SMILES | inhibition at 0.5 µM (VEGFR2 kinase) [%] | inhibition at 0.1 µM (Flt3 kinase) [%]
O=C(O)CCc1c(/C=C2\C(=O)Nc3cc(-c4ccc(F)cc4)ccc32)[nH]c2c1C(=O)CCC2 [DCB-70099, (Z)-6-(4-fluorophenyl)-3-((3-carboxyethyl-4-oxo-4,5,6,7-tetrahydro-1H-indol-2-yl)methylene)indolin-2-one] | 79 | 6.9
CCOC(=O)CCc1c(/C=C2\C(=O)Nc3ccc(Br)cc32)[nH]c2c1C(=O)CCC2 [DCB-70056, (Z)-5-bromo-3-((3-(3-ethoxy-3-oxopropyl)-4-oxo-4,5,6,7-tetrahydro-1H-indol-2-yl)methylene)indolin-2-one] | 89.6 | 99.2
O=C(O)CCc1c(/C=C2\C(=O)Nc3ccc(S(=O)(=O)N4CCOCC4)cc32)[nH]c2c1C(=O)CCC2 [DCB-70088, (Z)-5-morpholinosulfonyl-3-((3-carboxyethyl-4-oxo-4,5,6,7-tetrahydro-1H-indol-2-yl)methylene)indolin-2-one] | 17.2 | -2.1
CCOC(=O)CCc1c(/C=C2\C(=O)Nc3cc(-c4ccc(O)c(O)c4)ccc32)[nH]c2c1C(=O)CCC2 [DCB-70077, (Z)-6-(3,4-dihydroxyphenyl)-3-((3-(3-ethoxy-3-oxopropyl)-4-oxo-4,5,6,7-tetrahydro-1H-indol-2-yl)methylene)indolin-2-one] | 89.7 | 58.4
CCOC(=O)CCc1c(/C=C2\C(=O)Nc3ccc(NS(=O)(=O)c4ccc(F)cc4)cc32)[nH]c2c1C(=O)CCC2 [DCB-70144, (Z)-ethyl 3-(2-((5-(4-fluorophenylsulfonamido)-2-oxoindolin-3-ylidene)methyl)-4-oxo-4,5,6,7-tetrahydro-1H-indol-3-yl)propanoate] | 40.8 | 38.7
CCN(CC)C(=O)CCc1c(/C=C2\C(=O)Nc3ccc(F)cc32)[nH]c2c1C(=O)CCC2 [DCB-70124, (Z)-N,N-diethyl-3-(2-((5-fluoro-2-oxoindolin-3-ylidene)methyl)-4-oxo-4,5,6,7-tetrahydro-1H-indol-3-yl)propanamide] | 72.5 | 88.6
CCOC(=O)CCc1c(/C=C2\C(=O)Nc3ccc(-c4ccc(OC)c(OC)c4)cc32)[nH]c2c1C(=O)CCC2 [DCB-70067, (Z)-5-(3,4-dimethoxyphenyl)-3-((3-(3-ethoxy-3-oxopropyl)-4-oxo-4,5,6,7-tetrahydro-1H-indol-2-yl)methylene)indolin-2-one] | 27.2 | 21.2
O=C(O)CCc1c(C=C2C(=S)Nc3ccccc32)[nH]c2c1C(=O)CCC2 [DCB-70084, 3-((3-carboxyethyl-4-oxo-4,5,6,7-tetrahydro-1H-indol-2-yl)methylene)indolin-2-thione] | 13.4 | -2.6
CN1CCN(S(=O)(=O)c2ccc3c(c2)/C(=C/c2[nH]c4c(c2CCC(=O)O)C(=O)CCC4)C(=O)N3)CC1 [DCB-70107, (Z)-5-(4-methylpiperazin-1-ylsunfonyl)-3-((3-carboxyethyl-4-oxo-4,5,6,7-tetrahydro-1H-indol-2-yl)methylene)indolin-2-one hydrochloride] | 48.8 | 10.8
COc1ccc(-c2ccc3c(c2)/C(=C/c2[nH]c4c(c2CCC(=O)O)C(=O)CCC4)C(=O)N3)cc1OC [DCB-70068, (Z)-5-(3,4-dimethoxyphenyl)-3-((3-carboxyethyl-4-oxo-4,5,6,7-tetrahydro-1H-indol-2-yl)methylene)indolin-2-one] | 48.4 | 15.6
CCOC(=O)CCc1c(/C=C2\C(=O)Nc3ccc(-c4ccc(O)c(OC)c4)cc32)[nH]c2c1C(=O)CCC2 [DCB-70058, (Z)-5-(4-hydroxyl-3-methoxyphenyl)-3-((3-(3-ethoxy-3-oxopropyl)-4-oxo-4,5,6,7-tetrahydro-1H-indol-2-yl)methylene)indolin-2-one] | 46.3 | 55.1
O=C(O)CCc1c(/C=C2\C(=O)Nc3ccc([N+](=O)[O-])cc32)[nH]c2c1C(=O)CCC2 [DCB-70063, (Z)-5-nitro-3-((3-carboxyethyl-4-oxo-4,5,6,7-tetrahydro-1H-indol-2-yl)methylene)indolin-2-one] | 82.7 | 74.7
O=C(O)CCc1c(/C=C2\C(=O)Nc3ccc(-c4ccc(F)cc4)cc32)[nH]c2c1C(=O)CCC2 [DCB-70109, (Z)-5-(4-fluorophenyl)-3-((3-carboxyethyl-4-oxo-4,5,6,7-tetrahydro-1H-indol-2-yl)methylene)indolin-2-one] | 58.6 | 19.2
COc1ccc(NC(=O)Nc2ccc3c(c2)/C(=C/c2[nH]c4c(c2CCC(=O)O)C(=O)CCC4)C(=O)N3)cc1 [DCB-70094, (Z)-5-(3-(4-methoxyphenyl)ureido)-3-((3-carboxyethyl-4-oxo-4,5,6,7-tetrahydro-1H-indol-2-yl)methylene)indolin-2-one] | 79.8 | 52.8
CCOC(=O)CCc1c(/C=C2\C(=O)Nc3cc(-c4cc5ccccc5s4)ccc32)[nH]c2c1C(=O)CCC2 [DCB-70079, (Z)-6-(benzo[b]thiophen-2-yl)-3-((3-(3-ethoxy-3-oxopropyl)-4-oxo-4,5,6,7-tetrahydro-1H-indol-2-yl)methylene)indolin-2-one] | 15.6 | 1.1
O=C(O)CCc1c(/C=C2\C(=O)Nc3ccc(NC(=O)c4ccccc4)cc32)[nH]c2c1C(=O)CCC2 [DCB-70097, (Z)-5-benazmido-3-((3-carboxyethyl-4-oxo-4,5,6,7-tetrahydro-1H-indol-2-yl)methylene)indolin-2-one] | 62.5 | 2
CCOC(=O)CCc1c(/C=C2\C(=O)Nc3ccc(NC(=O)Nc4ccc(Br)cc4)cc32)[nH]c2c1C(=O)CCC2 [DCB-70135, (Z)-ethyl 3-(2-((5-(3-(4-bromophenyl)ureido)-2-oxoindolin-3-ylidene)methyl)-4-oxo-4,5,6,7-tetrahydro-1H-indol-3-yl)propanoate] | 44.6 | 20.3
CCOC(=O)CCc1c(/C=C2\C(=O)Nc3ccc(NC(=O)Nc4ccc(OC)cc4)cc32)[nH]c2c1C(=O)CCC2 [DCB-70092, (Z)-5-(3-(4-methoxyphenyl)ureido)-3-((3-(3-ethoxy-3-oxopropyl)-4-oxo-4,5,6,7-tetrahydro-1H-indol-2-yl)methylene)indolin-2-one] | 30.2 | 22.5
CNS(=O)(=O)c1ccc2c(c1)/C(=C/c1[nH]c3c(c1CCC(=O)N1CCN(C)CC1)C(=O)CCC3)C(=O)N2 [DCB-70117] | 43.3 | 48.3
CCOC(=O)CCc1c(/C=C2\C(=O)Nc3ccc(NC(=O)c4ccc(F)cc4)cc32)[nH]c2c1C(=O)CCC2 [DCB-70074, (Z)-5-(4-fluorobenzamido)-3-((3-(3-ethoxy-3-oxopropyl)-4-oxo-4,5,6,7-tetrahydro-1H-indol-2-yl)methylene)indolin-2-one] | 25 | -1.3
CCOC(=O)CCc1c(/C=C2\C(=O)Nc3ccc([N+](=O)[O-])cc32)[nH]c2c1C(=O)CCC2 [DCB-70062, (Z)-5-nitro-3-((3-(3-ethoxy-3-oxopropyl)-4-oxo-4,5,6,7-tetrahydro-1H-indol-2-yl)methylene)indolin-2-one] | 60.2 | 91.6
O=C(O)CCc1c(/C=C2\C(=O)Nc3ccc(NS(=O)(=O)c4ccc(F)cc4)cc32)[nH]c2c1C(=O)CCC2 [DCB-70145, (Z)-3-(2-((5-(4-fluorophenylsulfonamido)-2-oxoindolin-3-ylidene)methyl)-4-oxo-4,5,6,7-tetrahydro-1H-indol-3-yl)propanoic acid] | 66.6 | 24
CCOC(=O)CCc1c(/C=C2\C(=O)Nc3ccc(NS(=O)(=O)c4ccccc4)cc32)[nH]c2c1C(=O)CCCC2 [DCB-70146, (Z)-ethyl 3-(4-oxo-2-((2-oxo-5-(phenylsulfonamido)indolin-3-ylidene)methyl)-1,4,5,6,7,8-hexahydrocyclohepta[b]pyrrol-3-yl)propanoate] | 59.7 | 59.9
CCOC(=O)CCc1c(/C=C2\C(=O)Nc3ccc(NC(=O)Nc4ccc(C)cc4)cc32)[nH]c2c1C(=O)CCC2 [DCB-70091, (Z)-5-(3-p-tolylureido)-3-((3-(3-ethoxy-3-oxopropyl)-4-oxo-4,5,6,7-tetrahydro-1H-indol-2-yl)methylene)indolin-2-one] | 24.6 | 11.1
COc1cc(-c2ccc3c(c2)NC(=O)/C3=C\c2[nH]c3c(c2CCC(=O)O)C(=O)CCC3)ccc1O [DCB-70082, (Z)-6-(4-hydroxy-3-methoxyphenyl)-3-((3-carboxyethyl-4-oxo-4,5,6,7-tetrahydro-1H-indol-2-yl)methylene)indolin-2-one] | 95.8 | 35.1
